What was measured:
Type in all cases: cell-based
[1] = system: Wnt activity (Sp5-Luc reporter, TCF/LEF binding sites) in SW480 colon carcinoma cells; experiment: Wnt activity screening assay, Sp5-Luc reporter gene in SW480 cells; settings: Homo sapiens; for EC50: overnight incubation
Text: The screening assay for Wnt activity is described as follows. Reporter cell lines can be generated by stably transducing cancer cell lines (e.g., colon cancer) or primary cells (e.g., IEC-6 intestinal cells) with a lentiviral construct that includes a Wnt-responsive promoter driving expression of the firefly luciferase gene.
SW480 colon carcinoma cells were transduced with a lentiviral vector expressing luciferase with a human Sp5 promoter consisting of a sequence of eight TCF/LEF binding sites. SW480 cells stably expressing the Sp5-Luc reporter gene and a hygromycin resistance gene were selected by treatment with 150 μg/mL of hygromycin for 7 days. These stably transduced SW480 cells were expanded in cell culture and used for all further screening activities. Each compound was dissolved in DMSO as a 10 mM stock and used to prepare compound source plates. Serial dilution (1:3, 10-point dose-response curves starting from 10 μM) and compound transfer was performed using the ECHO 550 (Labcyte, Sunnyvale, Calif.) into 384-well white solid bottom assay plates (Greiner Bio-One) with appropriate DMSO backfill for a final DMSO concentration of 0.1%. For Sp5-Luc reporter gene assays, the cells were plated at 4,000 cells/well in 384-well plates with medium containing 1% fetal bovine serum and incubated overnight at 37° C. and 5% CO2. Following incubation, 20 μl of BrightGlo luminescence reagent (Promega) was added to each well of the 384-well assay plates. The plates were placed on an orbital shaker for 2 min and then luminescence was quantified using the Envision (Perkin Elmer) plate reader. Readings were normalized to DMSO only treated cells, and normalized activities were utilized for EC50 calculations using the dose-response log (inhibitor) vs. response-variable slope (four parameters) nonlinear regression feature available in GraphPad Prism 5.0 (or Dotmatics). For EC50 of >10 μM, the percent inhibition at 10 μM is provided.

[2] = system: SW480 colon cancer cells; experiment: Cell viability assay (CellTiter-Blue), SW480 cells; settings: Homo sapiens, 96 h, four days, CellTiter-Blue
Protocol: Representative compounds were screened using the following assay procedure to assess the effect on cell viability as described below.
Each compound was dissolved in DMSO as a 10 mM stock and used to prepare compound source plates. Serial dilution (1:3, 8-point dose-response curves from […]) and compound transfer was performed using the ECHO 550 (Labcyte, Sunnyvale, Calif.) into 96-well clear bottom, black-walled plates (Corning-Costar).
Approximately 2×10^3 SW480 colon cancer cells were seeded into each well and allowed to incubate in the presence or absence of compound for four days at 37° C./5% CO2. Eight replicates of DMSO-treated cells served as controls and cells treated with compound were performed in duplicate.
After incubation, 20 μL of CellTiter-Blue (Promega) was added to each well allowed to incubate for approximately 3 hours. This reagent was a buffered solution which contains resazurin, metabolically active cells were able to reduce rezarurin (blue) into resorufin (pink) which was highly fluorescent. This measured fluorescence was used as a readout for cell viability.
After incubation, the plates were read at Ex 560 nm Em 590 nm (Cytation 3, BioTek). Dose-response curves were generated and EC50 concentration values were calculated using non-linear regression curve fit in the GraphPad Prism (San Diego, Calif.) or Dotmatics' Studies Software (Bishops Stortford, UK). For EC50 of >10 μM, the percent inhibition at 10 μM is provided.

[3] = system: primary human fibroblasts derived from IPF patients (LL29 cells) treated with TGF-β1; experiment: Inhibition of fibrotic process, αSMA staining in TGF-β1 treated LL29 fibroblasts; settings: Fibroblast; for EC50: 96 h, TGF-β1 20 ng/mL, 4 days, % cells positive for αSMA; for inhibition at 10 µM: given for EC50 >10 μM, TGF-β1, αSMA, read-out: percent inhibition at 10 μM
Text: Representative compounds were screened using primary human fibroblasts (derived from IPF patients) treated with TGF-β1 to determine their ability to inhibit the fibrotic process.
Primary human fibroblasts derived from IPF patients (LL29 cells) [^1Xiaoqiu Liu, et. al., “Fibrotic Lung Fibroblasts Show Blunted Inhibition by cAMP Due to Deficient cAMP Response Element-Binding Protein Phosphorylation”, Journal of Pharmacology and Experimental Therapeutics (2005), 315(2), 678-687; ^2Watts, K. L., et. al., “RhoA signaling modulates cyclin D1 expression in human lung fibroblasts; implications for idiopathic pulmonary fibrosis”, Respiratory Research (2006), 7(1), 88] were obtained from American Type Culture Collection (ATCC) and expanded in F12 medium supplemented with 15% Fetal Bovine Serum and Penicillin/Streptomycin.
Each compound was dissolved in DMSO as a 10 mM stock and used to prepare compound source plates. Serial dilution (1:2, 11-point dose-response curves from […] to […]) and compound transfer was performed using the ECHO 550 (Labcyte, Sunnyvale, Calif.) into 384-well clear bottom assay plates (Greiner Bio-One) with appropriate DMSO backfill for a final DMSO concentration of 0.1%. LL29 cells are plated at 1,500 cells/well in 80 μL/well F12 medium supplemented with 1% Fetal Bovine Serum. One hour after addition of the cells, TGF-β1 (Peprotech; 20 ng/mL) was added to the plates to induce fibrosis (ref. 1 and 2 above). Wells treated with TGF-β1 and containing DMSO were used as controls. Cells were incubated at 37° C. and 5% CO2 for 4 days. Following incubation for 4 days, SYTOX green nucleic acid stain (Life Technologies [Thermo Fisher Scientific]) was added to the wells at a final concentration of 1 μM and incubated at room temperature for 30 min. Cells were then fixed using 4% formaldehyde (Electron Microscopy Sciences), washed 3 times with PBS followed by blocking and permeabilization using 3% Bovine Serum Albumin (BSA; Sigma) and 0.3% Triton X-100 (Sigma) in PBS. Cells were then stained with antibody specific to α-smooth muscle actin (aSMA; Abcam) (ref. 1 and 2 above) in 3% Bovine Serum Albumin (BSA; Sigma) and 0.3% Triton X-100 (Sigma) in PBS, and incubated overnight at 4° C. Cells were then washed 3 times with PBS, followed by incubation with Alexa Flor-647 conjugated secondary antibody (Life Technologies [Thermo Fisher Scientific]) and DAPI at room temperature for 1 hour. Cells were then washed 3 times with PBS and plates were sealed for imaging. aSMA staining was imaged by excitation at 630 nm and emission at 665 nm and quantified using the Compartmental Analysis program on the CellInsight CX5 (Thermo Scientific). Dead or apoptotic cells were excluded from analysis based on positive SYTOX green staining. % of total cells positive for aSMA were counted in each well and normalized to the average of 11 wells treated with TGF-β1 on the same plate using Dotmatics' Studies Software. The normalized averages (fold change over untreated) of 3 replicate wells for each compound concentration were used to create dose-responses curves and EC50 values were calculated using non-linear regression curve fit in the Dotmatics' Studies Software. For EC50 of >10 μM, the percent inhibition at 10 μM is provided.

[4] = system: IL-6; experiment: IL-6 inhibition in LPS-stimulated THP-1 cells (HTRF); settings: Homo sapiens; for EC50: LPS 500 ng/mL, 22 hours, IL6 HTRF; for inhibition at 10 µM: given for EC50 >10 μM, LPS, IL6, at 10 M [sic], read-out: percent inhibition at 10 M
Protocol: Human monocyte cell line (THP-1 cells; Catalog # TIB-202, ATCC, Manassas, Va.) were cultured in Roswell Park Memorial Institute (RPMI) 1640 Medium (Catalog #21870-100, Buffalo, N.Y.) with 1% L-glutamine, 1% HEPES, 1% Sodium Pyruvate, 2% Sodium Bicarbonate supplemented with 100 units/mL penicillin, 50 μg/mL streptomycin, 2-mercaptoethanol (0.05 mM) [basal medium] and 10% fetal bovine serum (Catalog #16140089, Life Technologies, Carlsbad, Calif.) at 37° C. and 5% CO2.
THP-1 cells were cultured in basal media with 1% FBS for 24 hours before the start of the assay. Each compound was dissolved in DMSO as a 10 mM stock and used to prepare compound source plates. Serial dilution (1:3, 10-point dose-response curves starting from 10 μM) and compound transfer was performed using the ECHO 550 (Labcyte, Sunnyvale, Calif.) into 384-well white low volume assay plates (Greiner Bio-One) with appropriate DMSO backfill for a final DMSO concentration of 0.1%. THP-1 cells were plated at 5000 cells/well in the 384-well plates and incubated at 37° C. for 2 h. 500 ng/mL of LPS was added after 2 hours and cells were incubated for another 22 hours at 37° C. Plates were spun in a centrifuge for 1 minute at […] and a mixture of anti-IL6 XL665, and anti-IL6 Cryptate diluted in reconstitution buffer (Cisbio Inc.) was added to each well. Following incubation for 3 hrs at room temperature, Homogeneous Time-Resolved Fluorescence (HTRF) was measured using the Envision (Perkin Elmer) at 665 nm and […]. The ratio of fluorescence at 665 nm to 620 nm was used as a readout for IL6 quantification. All samples were processed in duplicate. Readings were normalized to DMSO treated cells and normalized activities were utilized for EC50 calculations using the dose-response log (inhibitor) vs. response-variable slope (four parameters) nonlinear regression feature available in GraphPad Prism 5.0 (or Dotmatics). For EC50 of >10 μM, the percent inhibition at […] is provided.

SMILES | EC50 [1] [µM] | EC50 [2] [µM] | EC50 [4] [µM] | EC50 [3] [µM] | inhibition at 10 µM [3] [%] | inhibition at 10 µM [4] [%] | inhibition at 10 µM ([1]; given for EC50 >10 μM, 10 μM, read-out: percent inhibition at 10 μM) [%]
CS(=O)(=O)NCc1cc(F)cc(-c2cncc3[nH]c(-c4n[nH]c5ccc(-c6cncc(CN7CCC(F)(F)C7)c6)nc45)cc23)c1 [Compound 502, N-(3-(2-(5-(5-((3,3-Difluoropyrrolidin-1-yl)methyl)pyridin-3-yl)-1H-pyrazolo[4,3-b]pyridin-3-yl)-1H-pyrrolo[2,3-c]pyridin-4-yl)-5-fluorobenzyl)methanesulfonamide] | 2.11 | 3.09 | 1.76 | > 10 | 25.4 |  | 
CC(C)Nc1cncc(-c2ccc3[nH]nc(-c4cc5c(-c6cccnc6)cncc5[nH]4)c3n2)c1 [Compound 96, N-Isopropyl-5-(3-(4-(pyridin-3-yl)-1H-pyrrolo[2,3-c]pyridin-2-yl)-1H-pyrazolo[4,3-b]pyridin-5-yl)pyridin-3-amine] | 1.73 | 1.38 | 0.12 | > 10 | 0 |  | 
Fc1ccccc1-c1cncc2[nH]c(-c3n[nH]c4ccc(-c5cncc(CNCc6ccccc6)c5)nc34)cc12 [Compound 80, N-Benzyl-1-(5-(3-(4-(2-fluorophenyl)-1H-pyrrolo[2,3-c]pyridin-2-yl)-1H-pyrazolo[4,3-b]pyridin-5-yl)pyridin-3-yl)methanamine] | 3.98 | 6.73 | 5.79 | 4.6 |  |  | 
CC(C)CC(=O)Nc1cncc(-c2ccc3[nH]nc(-c4cc5c(-c6ccccc6F)cncc5[nH]4)c3n2)c1 [Compound 58, N-(5-(3-(4-(2-Fluorophenyl)-1H-pyrrolo[2,3-c]pyridin-2-yl)-1H-pyrazolo [4,3-b]pyridin-5-yl)pyridin-3-yl)-3-methylbutanamide] | 0.702 | 0.413 | 0.085 | 0.697 |  |  | 
c1cc(-c2cncc3[nH]c(-c4n[nH]c5ccc(-c6cncc(CNCC7CCCC7)c6)nc45)cc23)co1 [Compound 333, 1-Cyclopentyl-N-((5-(3-(4-(furan-3-yl)-1H-pyrrolo[2,3-c]pyridin-2-yl)-1H-pyrazolo[4,3-b]pyridin-5-yl)pyridin-3-yl)methyl)methanamine] | > 10 | 7.84 | 0.456 | 1.5 |  |  | 25.5

The remaining compounds from weak to strong by EC50 [1], led by results:

EC50 [1] [µM] | EC50 [2] [µM] | EC50 [4] [µM] | SMILES | EC50 [3] [µM] | inhibition at 10 µM [3] [%] | inhibition at 10 µM [4] [%] | inhibition at 10 µM ([1]; given for EC50 >10 μM, 10 μM, read-out: percent inhibition at 10 μM) [%]
2.33 | 1.12 | > 10 | Fc1ccc(-c2cncc3[nH]c(-c4n[nH]c5ccc(-c6ccccn6)nc45)cc23)cc1 [Compound 56, 3-(4-(4-Fluorophenyl)-1H-pyrrolo[2,3-c]pyridin-2-yl)-5-(pyridin-2-yl)-1H-pyrazolo[4,3-b]pyridine] | 1.3 |  | 32.6 | 
2.23 | 1.08 | 5.8 | c1csc(-c2cncc3[nH]c(-c4n[nH]c5ccc(-c6ccncc6)nc45)cc23)c1 [Compound 354, 5-(Pyridin-4-yl)-3-(4-(thiophen-2-yl)-1H-pyrrolo[2,3-c]pyridin-2-yl)-1H-pyrazolo[4,3-b]pyridine] | 1.18 |  |  | 
1.46 | 1.07 | > 10 | O=C(Nc1cncc(-c2ccc3[nH]nc(-c4cc5c(-c6cccc(F)c6)cncc5[nH]4)c3n2)c1)C1CCCCC1 [Compound 23, N-(5-(3-(4-(3-Fluorophenyl)-1H-pyrrolo[2,3-c]pyridin-2-yl)-1H-pyrazolo [4,3-b]pyridin-5-yl)pyridin-3-yl)cyclohexanecarboxamide] | 0.718 |  | 1 | 
1.42 | 0.897 | 0.157 | O=C(Nc1cncc(-c2ccc3[nH]nc(-c4cc5c(-c6ccccc6F)cncc5[nH]4)c3n2)c1)C1CC1 [Compound 76, N-(5-(3-(4-(2-Fluorophenyl)-1H-pyrrolo[2,3-c]pyridin-2-yl)-1H-pyrazolo [4,3-b]pyridin-5-yl)pyridin-3-yl)cyclopropanecarboxamide] | 2.04 |  |  | 
